# Assay results reported in PubChem BioAssay (NCI).
#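 Following 48 hours of exposure in 96-well plates, responses at five concentrations were used to interpolate endpoints linearly. GI50 = concentration required for 50% inhibition of growth. TGI is the concentration that stops growth completely.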
# What was measured:
# Experiment in all cases: inhibition of tumour cell growth, NCI panel, 48 h
# UACC-62 melanoma = system: UACC-62 melanoma
# LOX IMVI melanoma = system: LOX IMVI melanoma
# A498 renal = system: A498 renal
# CCRF-CEM leukemia = system: CCRF-CEM leukemia
# SF-268 CNS = system: SF-268 CNS
# BT-549 breast = system: BT-549 breast
# NCI-H460 lung = system: NCI-H460 lung
# RPMI-8226 leukemia = system: RPMI-8226 leukemia
# MDA-MB-435 = system: MDA-MB-435
# SF-295 CNS = system: SF-295 CNS
SMILES,GI50 (UACC-62 melanoma) [µM],TGI (UACC-62 melanoma) [µM],GI50 (LOX IMVI melanoma) [µM],TGI (LOX IMVI melanoma) [µM],GI50 (A498 renal) [µM],TGI (A498 renal) [µM],GI50 (CCRF-CEM leukemia) [µM],TGI (CCRF-CEM leukemia) [µM],GI50 (SF-268 CNS) [µM],TGI (SF-268 CNS) [µM],GI50 (BT-549 breast) [µM],TGI (BT-549 breast) [µM],GI50 (NCI-H460 lung) [µM],TGI (NCI-H460 lung) [µM],GI50 (RPMI-8226 leukemia) [µM],TGI (RPMI-8226 leukemia) [µM],GI50 (MDA-MB-435) [µM],TGI (MDA-MB-435) [µM],GI50 (SF-295 CNS) [µM],TGI (SF-295 CNS) [µM]
O=[N+]([O-])c1ccc2ncccc2c1Cl,5.84,20.4,2.4,14.5,10.8,31.3,2.54,29.8,3.89,13.9,3.29,9.57,3.47,16.6,0.435,6.57,2.18,9.07,,
C=C1C(=O)O[C@H]2[C@H]1CC/C(COC(=O)c1ccc(C#N)cc1)=C\CC[C@@]1(C)O[C@@H]21,1.95,4.33,1.56,2.99,15.4,30,0.906,6.47,2.2,5.09,1.44,3.15,3.46,14.5,1.5,4.61,1.96,4.53,8.16,20.7
COc1ccc(-c2csc(-c3cc(Cl)cc(Cl)c3Cl)n2)cc1,41.9,> 100,> 100,> 100,> 100,> 100,> 100,> 100,58,> 100,92.2,> 100,46.5,> 100,67,> 100,21.8,> 100,57.8,> 100
C=C(C)[C@@H]1CC[C@]2(COC3CCCCO3)CC[C@]3(C)[C@H](CC[C@@H]4[C@@]5(C)C=C(C=O)C(=O)C(C)(C)[C@@H]5CC[C@]43C)[C@@H]12 (stereo partly drawn),1.27,3.55,1.36,2.73,0.368,1.98,0.386,2.57,1.34,3.05,1.42,2.78,2.02,4.22,1.59,8.3,1.05,2.32,1.5,2.96
CCc1nc(Cl)nc(Cl)c1Cl,,19,,0.394,,25.6,,0.771,,3.37,,14.6,,28.5,,,,6.53,,23.1
CC1=C[S+](c2ccccc2)c2cccc3cc4ccccc4c1c23 (stereo not drawn),0.305,1.64,0.697,2.23,1.08,5.39,0.265,,0.237,1.76,0.216,0.717,0.349,2.37,0.0379,0.862,0.276,1.61,0.111,0.584
O=C1CCc2c(sc3[nH]c(=S)n(Cc4ccccc4)c(=O)c23)C1,2.54,13.2,3.38,12.5,3.44,> 100,2.88,10.3,3.55,> 100,1.82,7.35,3.64,> 100,1.18,9.79,3.43,> 100,2.46,7.23
CC(=O)OCC1O[C@@H]([S-])C(OC(C)=O)[C@H](OC(C)=O)[C@@H]1OC(C)=O.[Au+].c1ccc(CN2[CH-]N(Cc3ccccc3)C(c3ccccc3)=C2c2ccccc2)cc1,1.76,3.47,1.9,3.86,2.06,4.02,1.99,5.51,,,1.86,3.54,,,1.9,4.94,1.66,3.1,2.34,6.31
Cc1cc(C)nc(SC2=C(Nc3cccc(Cl)c3C)C(=O)N(Cc3ccccc3)C2=O)n1,> 160,> 160,> 160,> 160,> 160,> 160,> 160,> 160,> 160,> 160,> 160,> 160,> 160,> 160,> 160,> 160,> 160,> 160,> 160,> 160
Cc1nc(N)sc1C(=O)Nc1cc(C(=O)NCCCN(C)C)n(C)c1,> 100,> 100,> 100,> 100,> 100,> 100,> 100,> 100,> 100,> 100,76.7,> 100,> 100,> 100,60.1,> 100,> 100,> 100,> 100,> 100
C#CCOc1cccc(Nc2ncnc3ccc(NC(=O)CCl)cc23)c1,1.65,20.3,0.0933,3.89,4.6,21.4,0.0725,> 33.6,0.674,10.3,1.66,10.1,0.0723,3.08,1.22,13.6,1.4,20.2,2.29,19.8
O=C(c1ccccc1)c1nc2ccc(C(F)(F)F)cc2[n+]([O-])c1C(F)(F)F,33.7,> 100,33.6,> 100,13.2,45.2,27,> 100,39.9,> 100,31.5,> 100,23.5,> 100,16.4,> 100,43.8,> 100,19.7,> 100
O=C1c2c(O)cc(O)cc2OC(c2ccc(O)cc2O)C1O (stereo not drawn),> 100,> 100,> 100,> 100,> 100,> 100,> 100,> 100,> 100,> 100,,> 100,,> 100,> 100,> 100,,> 100,,> 100
